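In this assay, cells in 96-well plates receive the compound at five concentrations for 48 hours. Endpoints are linearly interpolated between the surrounding concentrations. GI50: concentration for 50% inhibition of growth.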 Active and inactive are the calls of the source. Cut-off read from the data, not from the text of the source: active = GI50 up to about 1.1 µM and inactive = higher.
Key:
Test in all cases: NCI tumour cell line growth inhibition, 48 h
SF-295 = system: SF-295
SK-MEL-28 = system: SK-MEL-28
OVCAR-8 = system: OVCAR-8
SW-620 = system: SW-620
HT-29 = system: HT-29
SN12C = system: SN12C
HOP-18 = system: HOP-18
786-0 = system: 786-0
HL-60 = system: HL-60
SK-OV-3 = system: SK-OV-3
CCRF-CEM = system: CCRF-CEM
NCI-H460 = system: NCI-H460
SK-MEL-5 = system: SK-MEL-5
NCI-H226 = system: NCI-H226
KM12 = system: KM12
A498 = system: A498
HCC 2998 = system: HCC 2998
DU-145 = system: DU-145
MDA-N = system: MDA-N
SR = system: SR

Structure (SMILES)	GI50 (SF-295)	GI50 (SK-MEL-28)	GI50 (OVCAR-8)	GI50 (SW-620)	GI50 (HT-29)	GI50 (SN12C)	GI50 (HOP-18)	GI50 (786-0)	GI50 (HL-60)	GI50 (SK-OV-3)	GI50 (CCRF-CEM)	GI50 (NCI-H460)	GI50 (SK-MEL-5)	GI50 (NCI-H226)	GI50 (KM12)	GI50 (A498)	GI50 (HCC 2998)	GI50 (DU-145)	GI50 (MDA-N)	GI50 (SR)
CCN(CC)c1ccc(/N=C2\C=C(Cl)C(=O)c3ncccc32)c(C)c1	15.6 µM (inactive)	8.2 µM (inactive)	4.08 µM (inactive)	4.05 µM (inactive)	15.8 µM (inactive)	7.41 µM (inactive)	3.08 µM (inactive)	3.08 µM (inactive)	1.86 µM (inactive)	31.3 µM (inactive)	1.68 µM (inactive)	6.56 µM (inactive)	3.18 µM (inactive)							
COc1cc(/C=C/C(=O)c2sc(NNC(C)=O)nc2C)ccc1O	> 100 µM (inactive)	> 100 µM (inactive)	> 100 µM (inactive)	> 100 µM (inactive)	> 100 µM (inactive)	> 100 µM (inactive)	> 100 µM (inactive)	> 100 µM (inactive)	> 100 µM (inactive)	> 100 µM (inactive)	> 100 µM (inactive)	> 100 µM (inactive)	> 100 µM (inactive)	> 100 µM (inactive)	> 100 µM (inactive)	84.3 µM (inactive)	> 100 µM (inactive)			
O=c1c(Sc2c(O)c3ccccc3c3ccccc3c2=O)c(O)c2ccccc2c2ccccc12	55.7 µM (inactive)	33 µM (inactive)	45.3 µM (inactive)	63.8 µM (inactive)	66.2 µM (inactive)	20.9 µM (inactive)	24.2 µM (inactive)	37.2 µM (inactive)	15.6 µM (inactive)	> 100 µM (inactive)	14 µM (inactive)	17.6 µM (inactive)	29.9 µM (inactive)		93.1 µM (inactive)		32.7 µM (inactive)			
C1=c2ccccc2=C2C(=C(c3ccccc3)C(c3ccccc3)=NN2c2ccccc2)S1	> 100 µM (inactive)	> 100 µM (inactive)	> 100 µM (inactive)	91.4 µM (inactive)	> 100 µM (inactive)	> 100 µM (inactive)	> 100 µM (inactive)	58.6 µM (inactive)	> 100 µM (inactive)	> 100 µM (inactive)	> 100 µM (inactive)	> 100 µM (inactive)	> 100 µM (inactive)	> 100 µM (inactive)	> 100 µM (inactive)	> 100 µM (inactive)	> 100 µM (inactive)			
COc1ccc(/C=N/c2ccc(-c3nc4ccccc4s3)cc2)cc1OC	25.4 µM (inactive)	38 µM (inactive)	36.2 µM (inactive)	34.8 µM (inactive)	30.7 µM (inactive)	25.7 µM (inactive)		19 µM (inactive)	1.3 µM (inactive)	31 µM (inactive)	12.8 µM (inactive)	21.8 µM (inactive)	16.1 µM (inactive)	30.1 µM (inactive)	26.4 µM (inactive)	18.8 µM (inactive)	20.2 µM (inactive)	38.3 µM (inactive)	30.9 µM (inactive)	27.8 µM (inactive)
COc1cc(/C=C2\C[C@H]3[C@@H]4CCC5=CC(=O)CC[C@]5(C)[C@H]4CC[C@]3(C)C2=O)cc(OC)c1OC	5.93 µM (inactive)	15.9 µM (inactive)	4 µM (inactive)	8.61 µM (inactive)	5.82 µM (inactive)	6.4 µM (inactive)		23.1 µM (inactive)	3.39 µM (inactive)	29.4 µM (inactive)	4.76 µM (inactive)	6.35 µM (inactive)	3.07 µM (inactive)	> 28.5 µM (inactive)	3.58 µM (inactive)	17.7 µM (inactive)	15 µM (inactive)	19.5 µM (inactive)	4.43 µM (inactive)	3.04 µM (inactive)
CNc1ccc(C)cc1S(=O)(=O)c1ccccc1[N+](=O)[O-]	42.1 µM (inactive)	38.8 µM (inactive)	78 µM (inactive)	69.8 µM (inactive)	48.1 µM (inactive)	86.7 µM (inactive)		64.6 µM (inactive)	> 10 µM (inactive)	91 µM (inactive)	21.4 µM (inactive)	51.1 µM (inactive)	18.2 µM (inactive)	75.5 µM (inactive)	59.4 µM (inactive)	62.5 µM (inactive)	92.5 µM (inactive)	> 100 µM (inactive)	26.2 µM (inactive)	51.3 µM (inactive)
NCC(=O)NC1(c2cc3ccccc3s2)CCCCC1	59.7 µM (inactive)	19 µM (inactive)	> 100 µM (inactive)	91 µM (inactive)	18.6 µM (inactive)	79.1 µM (inactive)		41.4 µM (inactive)	18.5 µM (inactive)	67.6 µM (inactive)	22 µM (inactive)	33.5 µM (inactive)	17.8 µM (inactive)	18.7 µM (inactive)	40.6 µM (inactive)	31 µM (inactive)	15.6 µM (inactive)	> 100 µM (inactive)	38.8 µM (inactive)	< 0.01 µM (active)
O=C(CCCCCCCCC(=O)OCCCn1cc(C(=O)NC(=O)OCc2ccccc2)c(=O)[nH]c1=O)OCCCn1cc(C(=O)NC(=O)OCc2ccccc2)c(=O)[nH]c1=O	> 100 µM (inactive)	> 100 µM (inactive)	> 100 µM (inactive)	> 100 µM (inactive)	> 100 µM (inactive)	> 100 µM (inactive)	> 100 µM (inactive)	> 100 µM (inactive)	> 100 µM (inactive)	> 100 µM (inactive)	> 100 µM (inactive)	> 100 µM (inactive)	> 100 µM (inactive)	> 100 µM (inactive)	> 100 µM (inactive)	> 100 µM (inactive)	> 100 µM (inactive)			
C(=C\N1CCCCC1)/c1nnnn1-c1ccccc1	21.9 µM (inactive)	44.7 µM (inactive)	26.4 µM (inactive)	34.8 µM (inactive)	84.5 µM (inactive)	26.2 µM (inactive)		43.8 µM (inactive)	15.8 µM (inactive)	25.6 µM (inactive)	19.6 µM (inactive)	73.8 µM (inactive)	23.3 µM (inactive)	37.2 µM (inactive)	56.8 µM (inactive)	54.1 µM (inactive)	90.6 µM (inactive)	> 100 µM (inactive)	32.3 µM (inactive)	23.4 µM (inactive)
CN1CCN(C2=C(Cl)C(=O)c3c(O)ccc(O)c3C2=O)CC1	1.78 µM (inactive)	0.995 µM (active)	0.223 µM (active)	0.187 µM (active)	0.359 µM (active)	0.826 µM (active)		0.244 µM (active)	0.103 µM (active)	5.62 µM (inactive)	0.105 µM (active)	1.94 µM (inactive)	0.502 µM (active)	2 µM (inactive)	1.99 µM (inactive)	2.52 µM (inactive)	2.04 µM (inactive)	1.78 µM (inactive)	0.35 µM (active)	0.094 µM (active)

From ChEMBL document CHEMBL1201862, “PubChem BioAssay data set” (2004)
